Here are results for 16 compounds from patent publication US7858790B2, “Modulators of muscarinic receptors” (Vertex Pharmaceuticals Incorporated, priority 2006, dated 2010).

Assay [1] concerns the target T1, M1 muscarinic receptor (Homo sapiens, UniProt P11229).
T1 construct: expressed in transfected cells; host or cells: CHO (M1-CHO recombinant cell line)
T1 sequence (P11229 1-460): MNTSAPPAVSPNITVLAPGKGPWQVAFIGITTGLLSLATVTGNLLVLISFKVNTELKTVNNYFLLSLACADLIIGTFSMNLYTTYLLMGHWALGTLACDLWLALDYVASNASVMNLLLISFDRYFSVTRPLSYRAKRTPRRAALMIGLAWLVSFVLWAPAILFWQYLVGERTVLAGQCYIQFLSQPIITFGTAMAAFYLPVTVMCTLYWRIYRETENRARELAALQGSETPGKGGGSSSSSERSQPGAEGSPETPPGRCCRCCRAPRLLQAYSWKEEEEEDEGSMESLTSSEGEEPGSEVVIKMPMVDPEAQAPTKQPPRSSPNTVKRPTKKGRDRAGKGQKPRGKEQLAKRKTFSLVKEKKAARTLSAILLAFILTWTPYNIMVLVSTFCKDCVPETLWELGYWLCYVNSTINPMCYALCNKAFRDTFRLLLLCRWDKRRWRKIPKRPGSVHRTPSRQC
Kind of assay: Functional mobilization of intracellular calcium (FLIPR) in CHO cells expressing M1 muscarinic receptor. It counts as cell-based. The settings on record: for M1 Activity: CHO cells expressing M1, calcium mobilization; for Emax: CHO, 100% efficacy is the maximum response obtained with the Carbachol control. How it is done:
(§1) VI. Assays for Detecting and Measuring Inhibition Properties of Compounds Functional Mobilization of Intracellular Calcium to Determine Muscarinic Receptor Activity:
(§2) CHO cells expressing muscarinic receptors (M1 to M5) are grown as monolayers in tissue culture flasks at 37° C. in a humidified atmosphere containing 5% CO2 and passaged every 3-5 days. The growth media is Dulbecco's modified eagles medium (DMEM, Gibco Cat# 12430-054), containing 25 mM Hepes and supplemented with Fetal Bovine Serum (Hyclone, cat# SH30071.03), 0.1 mM of MEM non-essential amino acids (GIBCO, Cat# 11140-050), 1 mM MEM Sodium Pyruvate (GIBCO Cat# 11360-070) and 100 units/ml of Penicillin G and 100 μg/ml of Streptomycin (GIBCO Cat# 15140-122). The recombinant muscarinic receptor cell lines are grown under antibiotic pressure with media containing 25 μg/ml zeocin and 500 μg/ml G418 (M1-CHO), 4 μg/ml puromycin, 50 μg/ml zeocin and 2.5 μg/ml blasticidin (M2 and M4-CHO) or 50 μg/ml zeocin and 4 μg/ml puromycin (M3 and M5-CHO).
(§3) Cells are harvested at 80-90% confluence using Versene (GIBCO Cat# 15040-066), collected by centrifugation and seeded 18-24 hours prior to running the calcium assay at a density of 5,000-10,000 cells/well in […], clear-bottomed 384-well plates (BD Biocoat, poly-D-lysine, Cat#356663). The day of the experiment, the cells are washed with a plate washer (Bioteck Instruments, ELX 405) using bath buffer (140-mM NaCl, 4.5-mM KCl, 2-mM CaCl2, 1-mM MgCl2, 10-mM Hepes-Na, 10-mM Glucose, pH 7.4, with NaOH) containing 1 mM Probenecid. Next, the calcium dye Fluo-3 (25 μl/well of Fluo-3 μM at 4 μM, Molecular Probes F-1241, in Bath 1 buffer containing 1 mM Probenecid) is added to the 25 μl of Bath 1 remaining in each well after the plate wash and the dye is loaded at 37° C. in the tissue culture incubator for 60-90 min. The fluorescent dye is removed using the plate washer with Bath 1 containing 1 mM Probenecid, leaving 25 μl/well of this solution after the wash. Alternatively, cells can be loaded with the calcium indicator from Molecular Devices (Calcium 3 Assay Reagents, Cat # R7181) adding 5 μl of a 5× solution dye in Bath 1 containing 1 mM Probenecid (10 ml per dye flask cat# R7182 to generate a solution 20×) to 20 μl of the same buffer. After loading for 60 min, the experiment can be run without having to remove the dye.
(§4) Compounds are prepared at a 2× fold concentration in a 96-well plate (round bottom, Costar Corning cat# 3656), by reconstituting the pre-spotted compounds in bath 1 containing 1 mM probenecid. The final concentration DMSO is 0.5%, and the amount of DMSO is normalized across the assay plate. To determine an agonist action of the compounds on muscarinic receptors, the reconstituted compounds are added (25 μl compound/well) to the cell assay plate (containing 25 μl/well) using the multi-channel robotic system of the FLIPR 3 Instrument (Molecular Devices, Sunnyvale, Calif.). To determine a functional inhibitory-action of the compounds on muscarinic receptors, the reconstituted compounds are added (25 μl compound/well) to the assay plate and pre-incubated for 15 min prior to adding 25 μl of Carbachol at 3× the EC80 for each muscarinic subtype. Alternatively, the compounds can be co-applied simultaneously with the agonist. In both assay modes, the fluorescence is recorded for 60 sec (excitation wavelength is […] and emission wavelength 540 nm) using the FLIPR 3 instrument.
(§5) The potency, efficacy and selectivity of the muscarinic compounds were evaluated by screening the compound activity across the whole family (M1 to M5 cells). Compounds were also screened for activity on other proteins such as other GPCRs and ion channels to determine selectivity on M4 receptors.
(§6) Examples of activities and efficacies of the muscarinic compounds of formulae (I, Ia, and Ib) on modulating M1 and M4 receptors are shown below in Table 8. […]
A general note: Calcium flux is commonly read through the fluorescence of an indicator in the cells.

The target of assay [2] is T2, M4 muscarinic receptor (Homo sapiens, UniProt P08173).
T2 construct: expressed in transfected cells; host or cells: CHO (M4-CHO recombinant cell line)
T2 sequence (P08173 1-479): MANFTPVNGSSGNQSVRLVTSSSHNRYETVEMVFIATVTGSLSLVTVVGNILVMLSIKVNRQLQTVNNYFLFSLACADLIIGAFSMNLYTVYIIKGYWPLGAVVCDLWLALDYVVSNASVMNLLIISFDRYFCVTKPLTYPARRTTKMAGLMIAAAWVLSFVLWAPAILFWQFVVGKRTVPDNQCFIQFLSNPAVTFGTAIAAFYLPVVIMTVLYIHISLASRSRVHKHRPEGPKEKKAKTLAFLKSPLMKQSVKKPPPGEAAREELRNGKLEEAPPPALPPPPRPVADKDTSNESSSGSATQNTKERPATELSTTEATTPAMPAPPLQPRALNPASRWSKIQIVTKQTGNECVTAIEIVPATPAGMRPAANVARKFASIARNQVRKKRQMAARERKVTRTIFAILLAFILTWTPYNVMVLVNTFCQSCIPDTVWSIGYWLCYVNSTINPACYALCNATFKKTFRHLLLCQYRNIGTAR
Briefly: Functional mobilization of intracellular calcium (FLIPR) in CHO cells expressing M4 muscarinic receptor. It counts as cell-based. Conditions: for M4 Activity: CHO cells expressing M4, calcium mobilization; for Emax: CHO, 100% efficacy is the maximum response obtained with the Carbachol control. As for the experimental part:
as §1, §2, §3, §4, §5, §6

For `CCC(CC)NC(=O)C1=CC2(CCN(C3CCCC3)CC2)c2ccccc21` [compound 17], in assay [1], the “M1 Activity” value is given as “+ (activity was measured to be greater than 10.0 μM)” and the Emax is < 25%. In assay [2], the “M4 Activity” value was “+ (activity was measured to be greater than 10.0 μM)” and the maximum response (Emax) is 25 to 100%.
`CNC(=O)C1=CC2(CCN(CCC(C)(C)C)CC2)c2ccccc21` [Compound No. 27, 1′-(3,3-dimethylbutyl)-N-methylspiro[indene-1,4′-piperidine]-3-carboxamide]: in assay [1], the “M1 Activity” value is on record as “+++ (activity was measured to be less than 2.0 μM)” and the Emax fell in the range of 25 to 100%. In assay [2], the “M4 Activity” value is recorded as “+++ (activity was measured to be less than 2.0 μM)” and the Emax is 25 to 100%.
As to `CN(C)C(=O)C1=CC2(CCN(CC3CCCCC3)CC2)c2ccccc21` [compound 59], in assay [1], the “M1 Activity” value is given as “+ (activity was measured to be greater than 10.0 μM)” and the Emax is < 25%. In addition, in assay [2], the “M4 Activity” value is reported as “+++ (activity was measured to be less than 2.0 μM)” and the maximal effect (Emax) fell in the range of 25 to 100%.
Take `CN(C)C(=O)C1=CC2(CCN(CC3CC4C=CC3C4)CC2)c2ccccc21` (stereo not shown) [compound 67]: in assay [1], the “M1 Activity” value is “+ (activity was measured to be greater than 10.0 μM)” and the Emax lay within 25 to 100%. Besides, in assay [2], the “M4 Activity” value is reported as “+++ (activity was measured to be less than 2.0 μM)” and the maximal effect (Emax) was in the range of 25 to 100%.
As to `CCC(CC)NC(=O)C1=CC2(CCN(C3CCNCC3)CC2)c2ccccc21` [compound 7], in assay [1], the “M1 Activity” value is “+ (activity was measured to be greater than 10.0 μM)” and the Emax is < 25%. In assay [2], the “M4 Activity” value was “+ (activity was measured to be greater than 10.0 μM)” and the Emax is < 25%.
For the compound `CCC(CC)NC(=O)C1=CC2(CCN(CCC3CCOCC3)CC2)c2ccccc21` [compound 53], in assay [1], the “M1 Activity” value is “+ (activity was measured to be greater than 10.0 μM)” and the Emax is < 25%. Also, in assay [2], the “M4 Activity” value is recorded as “+++ (activity was measured to be less than 2.0 μM)” and the Emax fell in the range of 25 to 100%.
In the same order, the values of `CCC(CC)NC(=O)C1=CC2(CCN(CCC(C)(C)C)CC2)c2ccccc21` [compound 39] are “+ (activity was measured to be greater than 10.0 μM)”, < 25%, “++ (activity was measured to be from 2.0 μM to 10.0 μM)” and 25 to 100%.
In the same order, the values of `CNC(=O)C1=CC2(CCN(C3CCCCCC3)CC2)c2ccccc21` [compound 41] are “++ (activity was measured to be from 2.0 μM to 10.0 μM)”, 25 to 100%, “+++ (activity was measured to be less than 2.0 μM)” and 25 to 100%.
For `CCC(CC)NC(=O)C1=CC2(CCN(C3CCN(C(C)=O)CC3)CC2)c2ccccc21` [compound 10], in assay [1], the “M1 Activity” value is listed as “+ (activity was measured to be greater than 10.0 μM)” and the Emax was < 25%. In assay [2], the “M4 Activity” value is listed as “+ (activity was measured to be greater than 10.0 μM)” and the Emax is < 25%.
As to `CCC(CC)NC(=O)C1=CC2(CCN(C3CCCCCC3)CC2)c2ccccc21` [Compound No. 3], in assay [1], the “M1 Activity” value was “+ (activity was measured to be greater than 10.0 μM)” and the Emax is < 25%. Besides, in assay [2], the “M4 Activity” value was “++ (activity was measured to be from 2.0 μM to 10.0 μM)” and the maximum response (Emax) fell in the range of 25 to 100%.
The like results for `CCC(CC)NC(=O)C1=CC2(CCN(C3CCN(C(=O)C(C)C)CC3)CC2)c2ccccc21` [compound 22] were, in that order, “+ (activity was measured to be greater than 10.0 μM)”, < 25%, “+ (activity was measured to be greater than 10.0 μM)” and < 25%.
In the same order, the values of `CC(C)(C)CCN1CCC2(C=C(C(=O)O)c3ccccc32)CC1` [Compound No. 20, 1′-(3,3-dimethylbutyl)spiro[indene-1,4′-piperidine]-3-carboxylic acid] are “+ (activity was measured to be greater than 10.0 μM)”, < 25%, “+++ (activity was measured to be less than 2.0 μM)” and < 25%.
In the same order, the values of `CNC(=O)C1=CC2(CCN(CC3CC4C=CC3C4)CC2)c2ccccc21` (stereo not shown) [compound 69] are “+++ (activity was measured to be less than 2.0 μM)”, 25 to 100%, “+++ (activity was measured to be less than 2.0 μM)” and 25 to 100%.
As to `CC(C)NC(=O)C1=CCC2(CCN(C3C[C@@H]4CC[C@@H]3C4)CC2)c2ccccc21` (stereo partly shown) [compound 36], in assay [1], the “M1 Activity” value is “+ (activity was measured to be greater than 10.0 μM)” and the Emax was < 25%. In assay [2], the “M4 Activity” value is “+ (activity was measured to be greater than 10.0 μM)” and the Emax is < 25%.
Regarding `O=C(C1=CCC2(CCN(C3C[C@@H]4CC[C@@H]3C4)CC2)c2ccccc21)N1CCCC1` (stereo partly shown) [compound 29], in assay [1], the “M1 Activity” value was “+ (activity was measured to be greater than 10.0 μM)” and the Emax was < 25%. In assay [2], the “M4 Activity” value was “+ (activity was measured to be greater than 10.0 μM)” and the maximal effect (Emax) was < 25%.
Take `CCOC(=O)N1C2CCC1CC(N1CCC3(C=C(C(=O)O)c4ccccc43)CC1)C2` (stereo not shown) [compound 13]: in assay [1], the “M1 Activity” value is recorded as “+++ (activity was measured to be less than 2.0 μM)” and the maximal response (Emax) was in the range of 25 to 100%. For the same compound, in assay [2], the “M4 Activity” value is on record as “+++ (activity was measured to be less than 2.0 μM)” and the Emax lay within 25 to 100%.

One may read the Emax as the greatest response seen or fitted, relative to the assay's reference.
